Key:
[1] = Acute toxicity, LD50 in mice intravenously; conditions: mouse, in vivo, iv, read-out: LD₅₀ (Mice; i.v.)
Protocol: LD₅₀ (mg/kg) of the each test compound given to mice intravenously was determined.

[2] = system: ischemic decerebrate rigidity; experiment: Action to ischemic decerebrate rigidity of rat (Fukuda et al method); type: in vivo, male Wistar rat; conditions: intravenous administration 3.5 mg/kg; average forepaw tension for 10 minutes at peak period after vs before administration
Source text: 2. Action to ischemic decerebrate rigidity of rat
The effects on the ischemic decerebrate rigidity were investigated by using Fukuda et al method (H. Fukuda, T. Ito, S. Hashimoto and Y. Kudo: Japan. J. Pharmacol., 24, 810 (1974)). The rigidity is due to hyperactivity of α-motorneurones. The rigid animals provide a good experimental model for some type of spasticity in man.
A tracheal cannula was inserted in each of male Wistar rat under ether anesthesia. Both of common carotid arteries were ligated and the basilar artery was cauterized with a bipolar coagulator to block the blood circulation and to prepare a rigidity sample. The rigidity was recorded as described below. A rat was fixed on its back on a fixing stand and its forepaws were allowed to grisp an end of a celluloid plate provided with strain gauges on both sides thereof. A change of the resistance observed when the celluloid plate was forced up by the rigidity of the forepaws was recorded as a tension through a bridge circuit on a self-balancing recorder. A rigidity inhibition rate was calculated according to the following equation: [formula] when C represents an average tension (g) for 10 minutes at peak period before the administration of a test compound and D represents an average tension (g) for 10 minutes at peak period recorded after the intravenous administration 3.5 mg/kg of a test compound.

[3] = system: Spinal reflex (flexor reflex); experiment: Spinal reflex (flexor reflex) inhibitory action, evoked electromyogram in anesthetized rats; type: in vivo, male rats; Wistar strain; conditions: intravenous (i.v.) administration of 5 mg/kg in physiological saline; average amplitude over 30 minutes after vs 10 minutes before administration; rats anesthetized with urethane and α-chloralose
Protocol: 1. Spinal reflex (flexor reflex) inhibitory action
Animals (male rats; Wistar strain) were anesthetized with urethane and α-chloralose, and their tibial nerve was dissected, and stimulated (0.1 msec, 0.1 Hz, ultra-maximum stimulation) by the stimulator (Model MSE-3; Nippon Koden). […] The amplitude of this evoked electromyogram was recorded on a pen recorder through a peak holder.The activity of the compounds was expressed by flexor reflex inhibition rate. That is, the flexor reflex inhibition rate was calculated from the following equation (A): [formula] wherein A is the average amplitude of the electromyogram in the period of 10 minuts before the administration of the test compound, and B is the average amplitude of the electromyogram in the period of 30 minutes after the intravenous (i.v.) administration of 5 mg/kg of the test compound dissolved in a physiological saline solution.

## CCC(CN1CCCC1)C(=O)c1ccc(OC)c2c1CCCC2 (stereo not drawn) [2-11, 1-(4-Methoxy-5,6,7,8-tetrahydro-1-naphthyl)-2-ethyl-3-pyrrolidino-1-propanone]
[1]
  LD50: 35.4 mg/kg
[2]
  Inhibition rate (%) (rigidity inhibition rate): 53.9%
[3]
  Inhibition rate (%) (flexor reflex inhibition rate): 50.0%

## CC(CN1CCCC1)C(=O)c1ccc(C(F)(F)F)cc1 (stereo not drawn) [4-1, 1-(4-Trifluoromethylphenyl)-2-methyl-3-pyrrolidino-1-propanone]
[1]
  LD50: 61.1 mg/kg
[2]
  Inhibition rate (%) (rigidity inhibition rate): 23.6%
[3]
  Inhibition rate (%) (flexor reflex inhibition rate): 40.3%

## COc1ccc(C(=O)C(C)CN2CCCC2)c2c1CCCC2 (stereo not drawn) [2-1, 1-(4-Methoxy-5,6,7,8-tetrahydro-1-naphthyl)-2-methyl-3-pyrrolidino-1-propanone]
[1]
  LD50: 38.1 mg/kg
[2]
  Inhibition rate (%) (rigidity inhibition rate): 46.1%
[3]
  Inhibition rate (%) (flexor reflex inhibition rate): 53.6%

From patent publication EP0200942B1, “New derivatives of an aminoketone” (NIPPON KAYAKU KABUSHIKI KAISHA, priority 1985, dated 1986)
